For test [1], the system named is Behavior change due to the spinal intrathecal injection of ferrous chloride in mice. As to the kind of experiment: Behavior change due to spinal intrathecal injection of ferrous chloride in mice. Particulars: 100 mg/kg p.o., 30 min before i.t. ferrous chloride; for Average score, 100 mg/kg dose: scale 0 (normal) to 5 (death); for Inhibition rate (%): vs saline. The format is in vivo, Slc:ICR mouse. The method, then: In male Slc : ICR mouse of 5 weeks age 10 mice per group were used. […] The evaluation point of behavior change was scored according to the following criterion.
The inhibition rate was shown based on the evaluation point under the above criterion. The test compound was orally administered 30 minutes before the i.t. injection of ferrous chloride.

Test [2] deals with formation of HHT (12-hydroxyheptadeca-5,8,10-trienoic acid) in rat's platelet. The test can be described thus: Inhibitory action for the formation of HHT in rat's platelet. The format is cell-based. The following applies: rat platelet rich plasma, read-out: Inhibition rate (%) of HHT formation; for inhibition at 100 µM: 10^-4 M; for inhibition at 10 µM: 10^-5 M; for inhibition at 1 µM: 10^-6 M. The protocol: Eight ml of blood was gathered from the abdominal aorta of a rat (JcI : Wistar, male, 12-15 weeks age) subjected to abdominal incision under anesthesia by the use of 3.2 % sodium citrate (1 volume of sodium citrate solution to 9 volume of whole blood). The blood was centrifuged at 800 rpm for 10 minutes at room temperature to gather PRP (platelet rich plasma), and the residual blood was further centrifuged at 3000 rpm for 10 minutes to gather PPP (platelet poor plasma). The platelet number in PRP was measured and the PRP was adjusted by diluting with PPP so that the concentration of platelet was one million/μl. To 0.25 ml of the PRP, 125 μg of arachidonic acid and the test compound (the final concentration of 100 μM, 10 μM, 1 μM and 0.1 μM) were added, and the mixture was incubated at 37° C. for 15 minutes. After the reaction, 1.1 ml of ethanol was added, well shaken and centrifuged at 2000 rpm for 10 minutes to separate the supernatant. To 1 ml of the supernatant 1 ml of water was added and subjected to high performance liquid chromatography to determine HHT. The absorption at 240 nm due to HHT was measured by an ultraviolet absorption monitor. […]

In the next test the target is T1, 5-lipoxygenase (Rattus norvegicus, UniProt P12527).
T1 construct: endogenous in cells; host or cells: RBL-1 (rat basophilic leukemia cells)
T1 sequence (P12527 1-673): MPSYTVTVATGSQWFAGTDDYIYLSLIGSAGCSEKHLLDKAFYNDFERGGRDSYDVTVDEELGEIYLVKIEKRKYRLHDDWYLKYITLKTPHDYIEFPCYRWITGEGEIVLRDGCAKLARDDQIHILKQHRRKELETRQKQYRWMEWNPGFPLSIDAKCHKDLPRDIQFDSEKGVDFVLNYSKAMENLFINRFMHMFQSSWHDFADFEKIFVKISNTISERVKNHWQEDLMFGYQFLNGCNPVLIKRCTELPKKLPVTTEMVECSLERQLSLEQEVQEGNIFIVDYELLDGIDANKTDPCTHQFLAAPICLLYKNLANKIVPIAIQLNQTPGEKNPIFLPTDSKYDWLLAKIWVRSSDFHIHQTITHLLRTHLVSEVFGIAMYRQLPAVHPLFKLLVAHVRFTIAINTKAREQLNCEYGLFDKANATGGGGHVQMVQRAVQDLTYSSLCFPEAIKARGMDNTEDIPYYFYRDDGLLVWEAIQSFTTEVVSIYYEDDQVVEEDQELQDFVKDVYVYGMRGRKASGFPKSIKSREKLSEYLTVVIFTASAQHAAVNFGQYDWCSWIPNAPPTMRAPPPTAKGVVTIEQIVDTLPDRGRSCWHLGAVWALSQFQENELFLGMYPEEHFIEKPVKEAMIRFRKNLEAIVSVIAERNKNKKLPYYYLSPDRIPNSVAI
The test can be described thus: Inhibitory action on 5-lipoxygenase (5-HETE formation in RBL-1 cells). The format is cell-based. Particulars: read-out: Inhibition rate (%) of 5-HETE formation; for inhibition at 1 µM: 10^-6 M; for inhibition at 0.1 µM: 10^-7 M; for inhibition at 0.01 µM: 10^-8 M. The protocol:
RBL-1 cells (rat basophilic leukemia cells) of 10^7 were suspended in 0.9 ml of MCM (mast cell medium). […] The mixture was incubated at 37° C. for 5 minutes. Then, 0.1 ml of MCM containing 50 μg of arachidonic acid and 10 μg of calcium ionophore A-23187 was added and further the mixture was incubated at 37° C. for 15 minutes. After the reaction, 1 ml of ethanol was added, well shaken and subjected to high performance liquid chromatography to determine 5-HETE. The absorption at 240 nm due to 5-HETE was measured by an ultraviolet abosorption monitor. The inhibition rate of 5-HETE formation is represented by (1-b/a)×100, wherein a is the peak height or area in the absence of the compound (I) and b is that in the presence of the compound (I).

The test system of test [3] is lipoperoxide formation in rat's brain homogenate. As to the kind of experiment: Inhibitory action for lipoperoxide formation in rat's brain homogenate (thiobarbituric acid method). The format is biochemical. The following applies: read-out: IC50 (M) × 10^-7. The method, then:
According to the method by Suno et al. (Japan J. Pharmacol., 35, 196(1984) , the concentration of the compound necessary for 50% inhibition of lipoperoxide formation in rat's brain homogenate was determined by examining the lipoperoxide formation using the thiobarbituric acid method. The results obtained are shown in Table 3.

In test [4] the target is T2, Leukotriene D4 (LTD4) receptor (Cavia porcellus, UniProt Q2NNR5).
T2 construct: guinea pigs' lung membrane fraction; from tissue; host or cells: guinea pig lung membrane fraction
T2 sequence (Q2NNR5 1-340): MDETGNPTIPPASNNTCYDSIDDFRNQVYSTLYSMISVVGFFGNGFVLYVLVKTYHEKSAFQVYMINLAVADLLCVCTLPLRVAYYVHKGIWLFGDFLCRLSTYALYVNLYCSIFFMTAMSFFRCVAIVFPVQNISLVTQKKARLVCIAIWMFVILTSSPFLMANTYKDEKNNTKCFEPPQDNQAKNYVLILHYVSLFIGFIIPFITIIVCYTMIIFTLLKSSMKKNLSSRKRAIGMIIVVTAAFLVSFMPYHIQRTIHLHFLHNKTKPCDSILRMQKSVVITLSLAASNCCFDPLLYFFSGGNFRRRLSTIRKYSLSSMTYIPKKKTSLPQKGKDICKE
As to the kind of experiment: Leukotriene D4 (LTD4) receptor antagonism ([3H]LTD4, guinea pigs' lung membrane fraction). The format is binding, guinea pig. Particulars: read-out: Inhibition rate (%) LTD4 receptor; for inhibition at 1 µM: 10^-6 M; for inhibition at 0.1 µM: 10^-7 M; for inhibition at 0.01 µM: 10^-8 M. The protocol: According to the method by S. S. Pong , and R. N. DeHaven (Proceedings of the National Academy of Sciences of the United States of America, 80, 7415-7419 (1983) , the leukotriene D4 (LTD4) receptor antagonism was measured by using [^3 H]LTD4 and guinea pigs' lung membrane fraction. The results are shown in Table 5.

Structures can show the parent of a compound that is named as a salt.

The results in this text go back to patent publication US5300639A, “Thiazolo [5,4-b]azepine compounds” (Takeda Chemical Industries, Ltd., priority 1992, dated 1994).

Regarding `COc1ccc(C=Cc2nc3c(s2)NCCCC3)cc1` [Example 2, 2-(4-Methoxystyryl)-5,6,7,8-tetrahydro-4H-thiazolo[5,4-b]azepine], in test [1], the “Average score, 100 mg/kg dose” value is 1.2 and the “Inhibition rate (%)” value is 74.5%. For the same compound, in test [2], the inhibition – broadly, the percentage by which the read-out fell short of the control – at 100 µM came to 100%; the inhibition at 10 µM is 58%; the inhibition at 1 µM came out at 16%. In addition, at 5-lipoxygenase, the inhibition at 1 µM turned out to be 100%, the inhibition at 0.1 µM worked out at 56% and the inhibition at 0.01 µM was determined as 14%.
For the compound `C(=Cc1nc2c(s1)NCCCC2)c1ccccc1` [Example 3, 2-Styryl-5,6,7,8-tetrahydro-4H-thiazolo[5,4-b]azepine], in test [2], the inhibition at 100 µM came out at 100%, the inhibition at 10 µM worked out at 83% and the inhibition at 1 µM amounted to 22%.
As to `COc1ccc(-c2nc3c(s2)NCCCC3)cc1` [Example 5, 2-(4-Methoxyphenyl)-5,6,7,8-tetrahydro-4H-thiazolo[5,4-b]azepine hydrochloride], in test [1], the “Average score, 100 mg/kg dose” value is listed as 0.9 and the “Inhibition rate (%)” value came to 82.0%.
Take `Cc1ccc(C=Cc2nc3c(s2)NCCCC3)cc1` [Example 6, 2-(4-Methylstyryl)-5,6,7,8-tetrahydro-4H-thiazolo[5,4-b]-azepine]: in test [3], the IC50 (as a rule, the midpoint of a concentration-inhibition curve) was 7e-07 M. In test [4], the inhibition at 1 µM amounted to 100%, the inhibition at 0.1 µM was found to be 94.3% and the inhibition at 0.01 µM was determined as 64.4%.
On to `CCOc1ccc(C=Cc2nc3c(s2)NCCCC3)cc1` [Example 7, 2-(4-Ethoxystyryl)-5,6,7,8-tetrahydro-4H-thiazolo[5,4-b]azepine], for which, in test [3], the IC50 worked out at 8e-07 M.
With `CC(C)c1ccc(C=Cc2nc3c(s2)NCCCC3)cc1` [Example 8, 2-(4-Isopropylstyryl)-5,6,7,8-tetrahydro-4H-thiazolo[5,4-b]azepine], the 50% inhibitory concentration (IC50) in test [3] turned out to be 7e-07 M. In test [4], the inhibition at 1 µM turned out to be 94.6%, the inhibition at 0.1 µM amounted to 92.4% and the inhibition at 0.01 µM was 54.8%.
Take `COc1ccc(C=CC=Cc2nc3c(s2)NCCCC3)cc1` [Example 9, 2-[4-(4-Methoxyphenyl)butadienyl]-5,6,7,8-tetrahydro-4H-thiazolo [5,4-b]azepine]: in test [3], the IC50 amounted to 7e-07 M. For the same compound, at 5-lipoxygenase, the inhibition at 1 µM amounted to 100%, the inhibition at 0.1 µM stood at 79% and the inhibition at 0.01 µM came to 12%.
Consider `COc1ccccc1C=Cc1nc2c(s1)NCCCC2` [Example 12, 2-(2-Methoxystyryl)-5,6,7,8-tetrahydro-4H-thiazolo [5,4-b)azepine oxalate], for which the IC50 in test [3] worked out at 6e-07 M.
As to `C(=Cc1nc2c(s1)NCCCC2)c1ccc2c(c1)OCO2` [Example 13, 2-(3,4-Methylenedioxystyryl)-5,6,7,8-tetrahydro-4H-thiazolo[5,4-b]azepine hydrochloride], in test [4], the inhibition at 1 µM stood at 100%, the inhibition at 0.1 µM came to 92.5% and the inhibition at 0.01 µM amounted to 61%.
Take `COc1ccc(C=Cc2nc3c(s2)NCCCC3)cc1OC.Cl` [Example 16, 2-(3,4-Dimethoxystyryl)-5,6,7,8-tetrahydro-4H-thiazolo[5,4-b]azepine hydrochloride]: in test [1], the “Average score, 100 mg/kg dose” value worked out at 0.3 and the “Inhibition rate (%)” value amounted to 94.0%.
`Clc1ccc(C=Cc2nc3c(s2)NCCCC3)cc1Cl` [Example 20, 2-(3,4-Dichlorostyryl)-5,6,7,8-tetrahydro-4H-thiazolo[5,4-b]azepine]: in test [2], the inhibition at 100 µM worked out at 96%, the inhibition at 10 µM worked out at 43% and the inhibition at 1 µM was 18%. Besides, at 5-lipoxygenase, the inhibition at 1 µM stood at 100%, the inhibition at 0.1 µM amounted to 44% and the inhibition at 0.01 µM turned out to be 2%.
Take `O=[N+]([O-])c1ccc(C=Cc2nc3c(s2)NCCCC3)cc1` [Example 22, 2-(4-Nitrostyryl)-5,6,7,8-tetrahydro-4H-thiazolo-[5,4-b]azepine]: at 5-lipoxygenase, the inhibition at 1 µM is 100%, the inhibition at 0.1 µM came to 49% and the inhibition at 0.01 µM came out at 4%.
For the compound `Fc1ccccc1-c1nc2c(s1)NCCCC2` [Example 23, 2-(2-Fluorophenyl)-5,6,7,8-tetrahydro-4H-thiazolo [5,4-b]azepine], in test [3], the IC50 was determined as 1.2e-06 M.
Turning to `O=[N+]([O-])c1ccc(-c2nc3c(s2)NCCCC3)cc1` [Example 24, 2-(4-Nitrophenyl)-5,6,7,8-tetrahydro-4H-thiazolo[5,4-b]azepine], at 5-lipoxygenase, the inhibition at 1 µM worked out at 93%, the inhibition at 0.1 µM is 53% and the inhibition at 0.01 µM turned out to be 26%.
Regarding `c1ccc(-c2nc3c(s2)NCCCC3)cc1` [Example 26, 2-Phenyl-5,6,7,8-tetrahydro-4H-thiazolo[5,4-b]azepine], in test [3], the IC50 turned out to be 1.2e-06 M. In test [2], the inhibition at 100 µM came to 100%, the inhibition at 10 µM came to 63% and the inhibition at 1 µM was determined as 22%.
Turning to `c1ccc2cc(-c3nc4c(s3)NCCCC4)ccc2c1` [Example 30, 2-(2-Naphthyl)-5,6,7,8-tetrahydro-4H-thiazolo [5,4-b]azepine], in test [4], the inhibition at 1 µM came to 100%, the inhibition at 0.1 µM is 98.8% and the inhibition at 0.01 µM was 76%.
Consider `c1csc(-c2nc3c(s2)NCCCC3)c1` [Example 31, 2-(2-Thienyl)-5,6,7,8-tetrahydro-4H-thiazolo[5,4-b]azepine], for which, in test [2], the inhibition at 100 µM stood at 100%, the inhibition at 10 µM is 80% and the inhibition at 1 µM was 19%.
The matching figures for `CS(=O)(=O)N1CCCCc2nc(-c3ccncc3)sc21` [Example 41, 4-Methanesulfonyl-2-(4-pyridyl)-5,6,7,8-tetrahydro-4H-thiazolo[5,4-b]azepin]: 87%, 63% and 23%.
